Test results as given in patent publication US20240158394A1, “NEK7 INHIBITORS” (Halia Therapeutics, Inc., priority 2022, published 2024).
pIC50: −log10 of the molar value.

Target: full-length recombinant human NEK7 (Homo sapiens (Human), UniProt Q8TDX7)
Assay: NEK7 Enzymatic Assay
Format: biochemical
Settings: casein substrate, [33P]-ATP, 2 hours at room temperature
Description: Casein substrate (from bovine milk, hydrolyzed and partially dephosphorylated mixture of α, β and κ caseins, obtained from Sigma Aldrich, catalogue #C4765, diluted in distilled water to a final concentration of 1 mg/mL) and full-length recombinant human NEK7 (expressed by baculovirus in Sf9 insect cells using a N-terminal GST tag, obtained from SignalChem, catalogue #N09-10G, 0.1 μg/μL) were mixed in assay buffer (20 mM HEPES pH 7.5, 10 mM MgCl2, 1 mM EGTA, 0.02% Brij35, 0.02 mg/mL BSA, 0.1 mM Na3VO4, 2 mM DTT, 1% DMSO). Compounds of interest (serial 3-fold dilution in DMSO from 10 μM to 0.5 nM) or vehicle (1% DMSO) were dispensed into the kinase reaction mixture by Acoustic technology (Echo550; nanoliter range). After incubation at room temperature for 20 minutes, the kinase reaction was initiated by addition of [^33P]-ATP (specific activity 10 μCi/μL) and the mixture was incubated at room temperature for 2 hours. The reaction was then stopped by spotting the reaction mixture on strips of phosphocellulose P81 paper. Following washing, the radioactivity of the P81 paper was measured and kinase activity data were expressed as the percent remaining kinase activity in test samples compared to vehicle reactions. IC50 values and curve fits were obtained using Prism (GraphPad Software).

Chain of full-length recombinant human NEK7 (Q8TDX7 whole entry): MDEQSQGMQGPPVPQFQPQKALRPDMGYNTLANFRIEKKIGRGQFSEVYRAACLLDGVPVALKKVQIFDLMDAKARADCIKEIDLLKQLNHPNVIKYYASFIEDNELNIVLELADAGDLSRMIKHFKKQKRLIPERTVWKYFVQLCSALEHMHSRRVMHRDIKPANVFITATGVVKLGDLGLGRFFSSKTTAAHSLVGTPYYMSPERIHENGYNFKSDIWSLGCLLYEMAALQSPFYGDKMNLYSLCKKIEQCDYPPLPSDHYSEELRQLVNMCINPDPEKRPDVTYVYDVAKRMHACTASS

| SMILES | pIC50 |
| --- | --- |
| CN1CCC(Oc2ccc(NC(=O)Nc3ccc(-c4cn(C5CC5)c5ncnc(N)c45)c4cnoc34)cc2C(F)(F)F)CC1 [Example I-70, 1-(4-(4-amino-7-cyclopropyl-7H-pyrrolo[2,3-d]pyrimidin-5-yl)benzo[d]isoxazol-7-yl)-3-(4-((1-methylpiperidin-4-yl)oxy)-3-(trifluoromethyl)-phenyl)urea] | > 6.70 |
| CN1CCN(Cc2ccc(NC(=O)Nc3ccc(-c4cn(CC(C)(C)O)c5ncnc(N)c45)n4ccnc34)cc2C(F)(F)F)CC1 [Example I-131, 1-(5-(4-amino-7-(2-hydroxy-2-methylpropyl)-7H-pyrrolo[2,3-d]pyrimidin-5-yl)imidazo[1,2-a]pyridin-8-yl)-3-(4-((4-meth-ylpiperazin-1-yl)methyl)-3-(trifluoromethyl)phenyl)urea] | > 6.70 |
| CC(C)(C)c1cc(NC(=O)Nc2ccc(-c3cn(C4CC4)c4ncnc(N)c34)c3cccnc23)on1 [Example I-2, 1-(5-(4-amino-7-cyclopropyl-7H-pyrrolo[2,3-d]pyrimidin-5-yl)quinolin-8-yl)-3-(3-(tert-butyl)isoxazol-5-yl)urea] | < 5.70 |
| CC(C)(C)c1cc(NC(=O)Nc2ccc(-c3cn(C4CC4)c4ncnc(N)c34)n3ccnc23)n(-c2ccc(Cl)cc2)n1 [Example I-13, 1-(5-(4-amino-7-cyclopropyl-7H-pyrrolo[2,3-d]pyrimidin-5-yl)imidazo[1,2-a]pyridin-8-yl)-3-(3-(tert-butyl)-1-(4-chlorophenyl)-1H-pyrazol-5-yl)urea] | 5.70 to 6.30 |
| CCN1CCC(Oc2ccc(NC(=O)Nc3ccc(-c4cn(C5CC5)c5ncnc(N)c45)c4c3OC(C)(C)C4)cc2C(F)(F)F)CC1 [Example I-123, 1-(4-(4-amino-7-cyclopropyl-7H-pyrrolo[2,3-d]pyrimidin-5-yl)-2,2-dimethyl-2,3-dihydrobenzofuran-7-yl)-3-(4-((1-ethylpiperidin-4-yl)oxy)-3-(trifluoromethyl)phenyl)urea] | < 5.70 |
| CC1(c2cc(NC(=O)Nc3ccc(-c4cn(C5CC5)c5ncnc(N)c45)n4ccnc34)on2)CC1 [Example I-18, 1-(5-(4-amino-7-cyclopropyl-7H-pyrrolo[2,3-d]pyrimidin-5-yl)imidazo[1,2-a]pyridin-8-yl)-3-(3-(1-methylcyclo-propyl)isoxazol-5-yl)urea] | > 6.70 |
| CCN1CCC(Oc2ccc(NC(=O)Nc3ccc(-c4cn(C5CCC5)c5ncnc(N)c45)n4ccnc34)cc2C(F)(F)F)CC1 [Example I-137, 1-(5-(4-amino-7-cyclobutyl-7H-pyrrolo[2,3-d]pyrimidin-5-yl)imidazo[1,2-a]pyridin-8-yl)-3-(4-((1-ethylpiperidin-4-yl)oxy)-3-(trifluoromethyl)-phenyl)urea] | > 6.70 |
| Nc1ncnc2c1c(-c1ccc(NC(=O)Nc3cc(C4(C(F)(F)F)CCC4)no3)c3nccn13)cn2C1CC1 [Example I-23, 1-(5-(4-amino-7-cyclopropyl-7H-pyrrolo[2,3-d]pyrimidin-5-yl)imidazo[1,2-a]pyridin-8-yl)-3-(3-(1-(trifluoromethyl)-cyclobutyl)isoxazol-5-yl)urea] | > 6.70 |
| Nc1ncnc2c1c(-c1ccc(NC(=O)Nc3cc(C4(C(F)(F)F)CC4)on3)c3nccn13)cn2C1CCNCC1 [Example I-94, 1-(5-(4-amino-7-(piperidin-4-yl)-7H-pyrrolo[2,3-d]pyr-imidin-5-yl)imidazo[1,2-a]-pyridin-8-yl)-3-(5-(1-(trifluoro-methyl)cyclopropyl)isoxazol-3-yl)urea] | > 6.70 |
| CN1CCN(Cc2ccc(NC(=O)Nc3ccc(-c4cn(C5CCNCC5)c5ncnc(N)c45)n4ccnc34)cc2C(F)(F)F)CC1 [Example I-133, 1-(5-(4-amino-7-(piperidin-4-yl)-7H-pyrrolo[2,3-d]pyr-imidin-5-yl)imidazo[1,2-a]-pyridin-8-yl)-3-(4-((4-methyl-piperazin-1-yl)methyl)-3-(trifluoromethyl)phenyl)urea] | > 6.70 |
| CN1CCC(Oc2ccc(NC(=O)Nc3ccc(-c4cn(C5CC5)c5ncnc(N)c45)c4ccncc34)cc2C(F)(F)F)CC1 [Example I-10, 1-(5-(4-amino-7-cyclopropyl-7H-pyrrolo[2,3-d]pyrimidin-5-yl)isoquinolin-8-yl)-3-(4-((1-methylpiperidin-4-yl)oxy)-3-(trifluoromethyl)phenyl)urea] | > 6.70 |
| Nc1ncnc2c1c(-c1ccc(NC(=O)Nc3ccc(CN4CCN(CCF)CC4)c(C(F)(F)F)c3)c3nccn13)cn2C1CC1 [Example I-41, 1-(5-(4-amino-7-cyclopropyl-7H-pyrrolo[2,3-d]pyrimidin-5-yl)imidazo[1,2-a]pyridin-8-yl)-3-(4-((4-(2-fluoroethyl)-piperazin-1-yl)methyl)-3-(trifluoromethyl)phenyl)urea] | > 6.70 |
| CC1(c2cc(NC(=O)Nc3ccc(-c4cn(C5CC5)c5ncnc(N)c45)c4ccncc34)on2)CC1 [Example I-6, 1-(5-(4-amino-7-cyclopropyl-7H-pyrrolo[2,3-d]pyrimidin-5-yl)isoquinolin-8-yl)-3-(3-(1-methylcyclopropyl)isoxazol-5-yl)urea] | 6.30 to 6.70 |
| Nc1ncnc2c1c(-c1ccc(NC(=O)Nc3cc(C4(C(F)(F)F)CC4)no3)c3ccccc13)cn2C1CC1 [Example I-1, 1-(4-(4-amino-7-cyclopropyl-7H-pyrrolo[2,3-d]pyrimidin-5-yl)naphthalen-1-yl)-3-(3-(1-(trifluoromethyl)cyclopropyl)-isoxazol-5-yl)urea] | < 5.70 |
| CN1CCN(Cc2ccc(NC(=O)Nc3ccc(-c4cn(C5CC5)c5ncnc(N)c45)c4c3OC(C)(C)C4)cc2C(F)(F)F)CC1 [Example I-60, 1-(4-(4-amino-7-cyclopropyl-7H-pyrrolo[2,3-d]pyrimidin-5-yl)-2,2-dimethyl-2,3-dihydrobenzofuran-7-yl)-3-(4-((4-methylpiperazin-1-yl)-methyl)-3-(trifluoromethyl)-phenyl)urea] | < 5.70 |
| CCN1CCC(Oc2ccc(NC(=O)Nc3ccc(-c4cn(C(C)C)c5ncnc(N)c45)n4ccnc34)cc2C(F)(F)F)CC1 [Example I-136, 1-(5-(4-amino-7-isopropyl-7H-pyrrolo[2,3-d]pyrimidin-5-yl)imidazo[1,2-a]pyridin-8-yl)-3-(4-((1-ethylpiperidin-4-yl)oxy)-3-(trifluoromethyl)-phenyl)urea] | > 6.70 |
| Nc1ncnc2c1c(-c1ccc(NC(=O)Nc3cc(C4(C(F)(F)F)CC4)on3)c3nccn13)cn2C1CCC1 [Example I-84, 1-(5-(4-amino-7-cyclobutyl-7H-pyrrolo[2,3-d]pyrimidin-5-yl)imidazo[1,2-a]pyridin-8-yl)-3-(5-(1-(trifluoromethyl)-cyclopropyl)isoxazol-3-yl)urea] | > 6.70 |
| Cc1cc(NC(=O)Nc2ccc(-c3cn(C4CC4)c4ncnc(N)c34)n3ccnc23)on1 [Example I-14, 1-(5-(4-amino-7-cyclopropyl-7H-pyrrolo[2,3-d]pyrimidin-5-yl)imidazo[1,2-a]pyridin-8-yl)-3-(3-methylisoxazol-5-yl)-urea] | < 5.70 |
| COCCn1cc(-c2ccc(NC(=O)Nc3cc(C4(C(F)(F)F)CC4)on3)c3nccn23)c2c(N)ncnc21 [Example I-89, 1-(5-(4-amino-7-(2-methoxy-ethyl)-7H-pyrrolo[2,3-d]-pyrimidin-5-yl)imidazo[1,2-a]pyridin-8-yl)-3-(5-(1-(trifluoromethyl)cyclopropyl)-isoxazol-3-yl)urea] | > 6.70 |
